Structures can show the parent of a compound that is named as a salt.
Key:
β-catenin/Tcf-4 = assay: cells; assay type: cell-based; settings: Homo sapiens, 24 hours of incubation with compound, ratio Firefly/Renilla luciferase
How it was run: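 SW480-derived lines with integrated reporters (Tcf-4-driven firefly luciferase; SV40 firefly as specificity control; SV40 Renilla for cell number/toxicity), treated 24 hours with titrated compounds, final 0.316% DMSO. Dual-luciferase read-out; firefly/Renilla ratio as % of control, duplicate plates, IC50 (nM) from curve fit.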

SV40-Luc = SV40-Luc control luciferase reporter assay, SV 5A8 cell line (SV40-Luc and SV40-R-Luc), control for non-specific inhibitors; assay type: cell-based, human; settings: Homo sapiens, SV5A8, 24 h, SV 5A8 cells derived from SW480; 24 hours of incubation with compound; ratio Firefly/Renilla luciferase
How it was run: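 Read-out is the firefly-to-Renilla luminescence ratio, expressed as % of control and averaged over duplicate plates, from which IC50s were fitted. Renilla under SV40 normalises for cell number and toxicity. SW480-derived lines carried integrated Tcf-4- or SV40-driven firefly reporters; compound exposure lasted 24 h.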

[1] = SW480, 24 h, Tcf 33.13 cells derived from SW480
[2] = Tcf22C11, 24 h, Tcf 22C11 cells derived from SW480

SMILES	IC50 (β-catenin/Tcf-4; [1]) [nM]	IC50 (β-catenin/Tcf-4; [2]) [nM]	IC50 (SV40-Luc) [nM]	melting point [°C]
C/C=C/c1ccc2c(NCc3ccc(NC(=O)C4CCN(Cc5ccccc5)CC4)cc3)nc(N(C)C)nc2c1 [Example 151, 1-benzyl-N-{4-[({2-(dimethylamino)-7-[(1E)-prop-1-en-1-yl]quinazolin-4-yl}amino)methyl]phenyl}-piperidine-4-carboxamide]	726	606	> 2530	154
Cc1ccc2c(NCc3ccc(NC(=O)c4ccc(F)cc4)cc3)nc(N3CCCCCC3)nc2c1 [Example 235, N-(4-{[(2-azepan-1-yl-7-methylquinazolin-4-yl)amino]methyl}phenyl)-4-fluorobenzamide]	448	451	> 5170	135 to 139
Cc1ccc2c(NCc3ccc(NC(=O)C4CCN(Cc5ccccc5)CC4)cc3)nc(N3CCCC3)nc2c1 [Example 133, 1-benzyl-N-(4-{[(7-methyl-2-pyrrolidin-1-ylquinazolin-4-yl)amino]methyl}phenyl)piperidine-4-carboxamide]	793	669	> 9350	96
C/C=C/c1ccc2c(NCc3ccc(NC(=O)c4ccc(F)cc4)cc3)nc(N(C)C)nc2c1 (as salt: HCl) [Example 96, N-{4-[({2-(dimethylamino)-7-[(1E)-prop-1-en-1-yl]quinazolin-4-yl}amino)methyl]phenyl}-4-fluorobenzamide]	–	–	–	268
C#Cc1ccc2c(NCc3ccc(NC(=O)c4ccc(F)cc4)cc3)nc(N(C)C)nc2c1 (as salt: HCl) [Example 108, N-[4-({[2-(dimethylamino)-7-ethynylquinazolin-4-yl]amino}methyl)phenyl]-4-fluorobenzamide]	–	–	–	250
CNc1nc(NCc2ccc(NC(=O)c3ccc(Cl)nc3)cc2)c2cc([N+](=O)[O-])ccc2n1 [Example 184, 6-chloro-N-[4-({[2-(methylamino)-6-nitroquinazolin-4-yl]amino}methyl)phenyl]nicotinamide]	> 21600	> 21600	> 21600	305 to 307
CCc1ccc2c(NCc3ccc(NC(=O)c4ccc(F)cc4)cc3)nc(N(C)C)nc2c1 (as salt: HCl) [Example 88, N-[4-({[2-(dimethylamino)-7-ethylquinazolin-4-yl]amino}methyl)phenyl]-4-fluorobenzamide]	–	–	–	270
CC(C)(C)OC(=O)CNc1nc(NCc2ccc(NC(=O)c3ccc(F)cc3)cc2)c2ccccc2n1 [Example 126, tert-butyl N-[4-({4-[(4-fluorobenzoyl)amino]benzyl}amino)quinazolin-2-yl]glycinate]	1070	1720	> 2490	96
CN(C)c1nc(NCc2ccc(NC(=O)c3ccc(F)cc3)cc2)c2ccc(CN)cc2n1 (as salt: HCl) [Example 90, N-[4-({[7-(aminomethyl)-2-(dimethylamino)quinazolin-4-yl]amino}methyl)phenyl]-4-fluorobenzamide]	–	–	–	245
CNc1nc(NCc2ccc(NC(=O)c3ccc(Cl)cc3)cc2)c2ccc(C)cc2n1 [Example 195, 4-chloro-N-[4-({[7-methyl-2-(methylamino)quinazolin-4-yl]amino}methyl)phenyl]benzamide]	–	–	> 1160	264 to 266
CC(=O)c1ccc2c(NCc3ccc(NC(=O)c4ccc(F)cc4)cc3)nc(N(C)C)nc2c1 [Example 94, N-[4-({[7-acetyl-2-(dimethylamino)quinazolin-4-yl]amino}methyl)phenyl]-4-fluorobenzamide]	–	–	> 20200	195
C/C=C\c1ccc2c(NCc3ccc(NC(=O)c4ccc(F)cc4)cc3)nc(N(C)C)nc2c1 (as salt: HCl) [Example 97, N-{4-[({2-(dimethylamino)-7-[(1Z)-prop-1-en-1-yl]quinazolin-4-yl}amino)methyl]phenyl}-4-fluorobenzamide]	–	–	–	246
O=C(Nc1ccc(CNc2nc(Cl)nc3cc(I)ccc23)cc1)c1ccc(Cl)nc1 [Example 109, 6-chloro-N-(4-{[(2-chloro-7-iodoquinazolin-4-yl)amino]methyl}phenyl)nicotinamide]	–	–	–	315
O=C(Nc1ccc(CNc2nc(N3CCC3)nc3ccccc23)cc1)c1ccc(F)cc1 [Example 114, N-(4-{[(2-azetidin-1-ylquinazolin-4-yl)amino]methyl}phenyl)-4-fluorobenzamide]	587	870	> 5850	249
CCNc1nc(NCc2ccc(NC(=O)C3CCN(Cc4ccccc4)CC3)cc2)c2ccc(C)cc2n1 [Example 132, 1-benzyl-N-[4-({[2-(ethylamino)-7-methylquinazolin-4-yl]amino}methyl)phenyl]piperidine-4-carboxamide]	1140	1390	> 2150	55
CC(O)c1ccc2c(NCc3ccc(NC(=O)c4ccc(F)cc4)cc3)nc(N(C)C)nc2c1 (stereo not shown) (as salt: HCl) [Example 95, N-[4-({[2-(dimethylamino)-7-(1-hydroxyethyl)quinazolin-4-yl]amino}methyl)phenyl]-4-fluorobenzamide]	–	–	–	232
CN(C)c1nc(NCc2ccc(NC(=O)c3ccc(Cl)nc3)cc2)c2ccc(I)cc2n1 (as salt: HCl) [Example 110, 6-chloro-N-[4-({[2-(dimethylamino)-7-iodoquinazolin-4-yl]amino}methyl)phenyl]nicotinamide]	–	–	–	170
CCCNc1nc(NCc2ccc(NC(=O)c3ccc(F)cc3)cc2)c2ccc(C)cc2n1 [Example 231, 4-fluoro-N-[4-({[7-methyl-2-(propylamino)quinazolin-4-yl]amino}methyl)phenyl]benzamide]	–	–	> 2820	170 to 174
CN(C)c1nc(NCc2ccc(NC(=O)c3ccc(F)cc3)cc2)c2ccc(CO)cc2n1 (as salt: HCl) [Example 93, N-[4-({[2-(dimethylamino)-7-(hydroxymethyl)quinazolin-4-yl]amino}methyl)phenyl]-4-fluorobenzamide]	–	–	–	158
C=Cc1ccc2c(NCc3ccc(NC(=O)c4ccc(F)cc4)cc3)nc(N(C)C)nc2c1 (as salt: HCl) [Example 87, N-[4-({[2-(dimethylamino)-7-vinylquinazolin-4-yl]amino}methyl)phenyl]-4-fluorobenzamide]	–	–	–	145
CN(C)c1nc(NCc2ccc(NC(=O)c3ccc(F)cc3)cc2)c2ccc(C#N)cc2n1 (as salt: HCl) [Example 89, N-[4-({[7-cyano-2-(dimethylamino)quinazolin-4-yl]amino}methyl)phenyl]-4-fluorobenzamide]	–	–	–	150
CN(C)c1nc(NCc2ccc(NC(=O)c3ccc(F)cc3)cc2)c2ccc(-c3ccccc3C=O)cc2n1 (as salt: HCl) [Example 98, N-[4-({[2-(dimethylamino)-7-(2-formylphenyl)quinazolin-4-yl]amino}methyl)phenyl]-4-fluorobenzamide]	–	–	–	128
O=C(O)CNc1nc(NCc2ccc(NC(=O)c3ccc(F)cc3)cc2)c2ccccc2n1 (as salt: HCl) [Example 127, N-[4-({4-[(4-fluorobenzoyl)amino]benzyl}amino)quinazolin-2-yl]glycine]	–	–	–	235
Cc1ccc2c(NCc3ccc(NC(=O)c4ccc(Cl)nc4)cc3)nc(N(C)C)nc2c1 (as salt: hydrochloride) [Example 242, 6-chloro-N-[4-({[2-(dimethylamino)-7-methylquinazolin-4-yl]amino}methyl)phenyl]nicotinamide]	–	–	–	325 to 329
CNc1nc(NCc2ccc(NC(=O)c3ccc(Cl)nc3)cc2)c2c(C)cccc2n1 [Example 194, 6-chloro-N-[4-({[5-methyl-2-(methylamino)quinazolin-4-yl]amino}methyl)phenyl]nicotinamide]	–	–	> 5780	233 to 236
CN(C)Cc1ccc2c(NCc3ccc(NC(=O)c4ccc(F)cc4)cc3)nc(N(C)C)nc2c1 (as salt: HCl) [Example 91, N-{4-[({2-(dimethylamino)-7-[(dimethylamino)methyl]quinazolin-4-yl}amino)methyl]phenyl}-4-fluorobenzamide]	–	–	–	94
Cc1ccc2c(NCc3ccc(NC(=O)c4ccc(F)cc4)cc3)nc(N3CCN[C@@H](C)C3)nc2c1 [Example 234, 4-fluoro-N-{4-[({7-methyl-2-[(3S)-3-methylpiperazin-1-yl]quinazolin-4-yl}amino)methyl]phenyl}benzamide]	–	–	> 6780	200 to 202
Cc1ccc2c(NCc3ccc(NC(=O)C4CCN(Cc5ccccc5)CC4)cc3)nc(N(C)C)nc2c1 (as salt: HCl) [Example 129, 1-benzyl-N-[4-({[2-(dimethylamino)-7-methylquinazolin-4-yl]amino}methyl)phenyl]piperidine-4-carboxamide]	–	–	–	100
C/C=C/c1ccc2c(NCc3ccc(NC(=O)c4ccc(Cl)nc4)cc3)nc(N(C)C)nc2c1 (as salt: HCl) [Example 112, 6-chloro-N-{4-[({2-(dimethylamino)-7-[(1E)-prop-1-en-1-yl]quinazolin-4-yl}amino)methyl]phenyl}nicotinamide]	–	–	–	185

Reference: patent publication US20090004185A1, “AMINO-SUBSTITUTED QUINAZOLINE DERIVATIVES AS INHIBITORS OF BETA-CATENIN/TCF-4 PATHWAY AND CANCER TREATMENT AGENTS” (WYETH, priority 2007, published 2009)
